Read-outs that look alike come from different tables or passages of the source.
Key:
[1] = tested on: Serratia marcescens strain HY/a 21
streptococci group A 807 = assay: microbe, parasite or virus in culture; type: cell-based; conditions: for MIC: read-out: Minimum inhibiting concentration (MHK), series dilution test
C. Paracrusei 45 = assay: microbe, parasite or virus in culture; type: cell-based; conditions: for MBC: read-out: Concentration from which subcultures no longer started; for MIC: read-out: Minimum inhibiting concentration (MHK), series dilution test
C. Albicans 49 = assay: microbe, parasite or virus in culture; type: cell-based; conditions: Candida albicans; for MIC: read-out: Minimum inhibiting concentration (MHK), series dilution test
in vivo = conditions: mouse
enterococci = assay: microbe, parasite or virus in culture; type: cell-based; conditions: for MIC: read-out: Minimum inhibiting concentration (MHK), series dilution test
Staph. aur. PCI 1203 = assay: microbe, parasite or virus in culture; type: cell-based; conditions: for MBC: read-out: Concentration from which subcultures no longer started; for MIC: read-out: Minimum inhibiting concentration (MHK), series dilution test
S. typhimurium G 46 = conditions: in vivo
Trichomonas foetus = assay: Infection tests with Trichomonas foetus in mice; type: in vivo; conditions: for % of Animals Dying After Infection (Mean Value): stomach tube, 3 successive days, NMRI mice
E. coli 6106 = assay: microbe, parasite or virus in culture; type: cell-based; conditions: for MIC: read-out: Minimum inhibiting concentration (MHK), series dilution test
Staph. aur. SG 511 = assay: microbe, parasite or virus in culture; type: cell-based; conditions: for MIC: read-out: Minimum inhibiting concentration (MHK), series dilution test
Ps. aeruginosa 2 = assay: microbe, parasite or virus in culture; type: cell-based; conditions: for MIC: read-out: Minimum inhibiting concentration (MHK), series dilution test
streptoc. group B 779 = assay: microbe, parasite or virus in culture; type: cell-based; conditions: for MBC: read-out: Concentration from which subcultures no longer started; for MIC: read-out: Minimum inhibiting concentration (MHK), series dilution test
[2] = tested on: 9 bacteria and 2 yeast strains; assay: In vitro tests with 9 bacteria and 2 yeast strains (summary); type: cell-based; conditions: even with the high concentration of 500 μg/ml
streptococci group C 805 = assay: microbe, parasite or virus in culture; type: cell-based; conditions: for MBC: read-out: Concentration from which subcultures no longer started; for MIC: read-out: Minimum inhibiting concentration (MHK), series dilution test
Klebs. pneum. PCI 602 = assay: microbe, parasite or virus in culture; type: cell-based; conditions: for MBC: read-out: Concentration from which subcultures no longer started; for MIC: read-out: Minimum inhibiting concentration (MHK), series dilution test
[3] = 24 h, read-out: Concentration from which subcultures no longer started, subcultures applied after 24 h, read after 24 h
[4] = 48 h, read-out: Concentration from which subcultures no longer started, subcultures applied after 48 h, read after 48 h
[5] = read-out: Concentration from which subcultures no longer started, subcultures applied after 24 h, read after 48 h
[6] = read-out: Concentration from which subcultures no longer started, subcultures applied after 48 h, read after 24 h
[7] = subcultures applied after 48 h, read after 24 h

**Q.** Which results are given for O=C1CCO1 [β-propiolactone, reference compound]?
**A.** Mutants, Test [1]: 6.6 × 10^2 colonies/ml; Mutation frequency [1]: 3.4 × 10^-6

**Q.** For Cc1ncc([N+](=O)[O-])n1CCO [Metronidazol, reference compound], which MBC (streptococci group A 807; [3]) is on record?
**A.** > 500 µg/mL

**Q.** What about the MIC (streptococci group A 807; 24 h) of the same compound?
**A.** > 500 µg/mL

**Q.** What about the MBC (streptococci group A 807; [4]) of the same compound?
**A.** > 500 µg/mL

**Q.** And the MIC (streptococci group A 807; 48 h)?
**A.** > 500 µg/mL

**Q.** What about the MBC (streptococci group A 807; [5]) of the same compound?
**A.** > 500 µg/mL

**Q.** What about the MBC (streptococci group A 807; [6]) of the same compound?
**A.** > 500 µg/mL

**Q.** And the MBC (C. Paracrusei 45; 24 h)?
**A.** > 500 µg/mL

**Q.** And the MIC (C. Paracrusei 45; 24 h)?
**A.** > 500 µg/mL

**Q.** What about the MBC (C. Paracrusei 45; 48 h) of the same compound?
**A.** > 500 µg/mL

**Q.** And the MIC (C. Paracrusei 45; 48 h)?
**A.** > 500 µg/mL

**Q.** And the MBC (C. Paracrusei 45)?
**A.** > 500 µg/mL

**Q.** What about the “Concentration from which subcultures no longer started” value (C. Paracrusei 45; [7]) of the same compound?
**A.** > 500 µg/mL

**Q.** And the MBC (C. Albicans 49; [3])?
**A.** > 500 µg/mL

**Q.** What about the MIC (C. Albicans 49; 24 h) of the same compound?
**A.** > 500 µg/mL

**Q.** What about the MBC (C. Albicans 49; [4]) of the same compound?
**A.** > 500 µg/mL

**Q.** And the MIC (C. Albicans 49; 48 h)?
**A.** > 500 µg/mL

**Q.** What about the MBC (C. Albicans 49; [5]) of the same compound?
**A.** > 500 µg/mL

**Q.** What about the MBC (C. Albicans 49; [6]) of the same compound?
**A.** > 500 µg/mL

**Q.** And the LD50 (in vivo)?
**A.** > 2000 mg/kg

**Q.** And the MBC (enterococci; [3])?
**A.** > 500 µg/mL

**Q.** What about the MIC (enterococci; 24 h) of the same compound?
**A.** > 500 µg/mL

**Q.** And the MBC (enterococci; [4])?
**A.** > 500 µg/mL

**Q.** And the MIC (enterococci; 48 h)?
**A.** > 500 µg/mL

**Q.** And the MBC (enterococci; [5])?
**A.** > 500 µg/mL

**Q.** And the MBC (enterococci; [6])?
**A.** > 500 µg/mL

**Q.** And the MBC (Staph. aur. PCI 1203; 24 h)?
**A.** > 500 µg/mL

**Q.** What about the MIC (Staph. aur. PCI 1203; 24 h) of the same compound?
**A.** > 500 µg/mL

**Q.** And the MBC (Staph. aur. PCI 1203; 48 h)?
**A.** > 500 µg/mL

**Q.** And the MIC (Staph. aur. PCI 1203; 48 h)?
**A.** > 500 µg/mL

**Q.** And the MBC (Staph. aur. PCI 1203)?
**A.** > 500 µg/mL

**Q.** And the “Concentration from which subcultures no longer started” value (Staph. aur. PCI 1203; [7])?
**A.** > 500 µg/mL

**Q.** And the “Mutants, Test” value [1]?
**A.** 5.9 × 10^2 colonies/ml

**Q.** And the Mutation frequency [1]?
**A.** 3.1 × 10^-6

**Q.** And the “Mutation frequency in test animals” value (S. typhimurium G 46)?
**A.** 4.6 . 10^-7

**Q.** And the “% of Animals Dying After Infection (Mean Value)” value (Trichomonas foetus; 6.25 mg/kg)?
**A.** 90%

**Q.** And the “% of Animals Dying After Infection (Mean Value)” value (Trichomonas foetus; 12.5 mg/kg)?
**A.** 80%

**Q.** And the “% of Animals Dying After Infection (Mean Value)” value (Trichomonas foetus; 25 mg/kg)?
**A.** 70%

**Q.** What about the “% of Animals Dying After Infection (Mean Value)” value (Trichomonas foetus; 50 mg/kg) of the same compound?
**A.** 15%

**Q.** And the “% of Animals Dying After Infection (Mean Value)” value (Trichomonas foetus; 75 mg/kg)?
**A.** 0%

**Q.** What about the “% of Animals Dying After Infection (Mean Value)” value (Trichomonas foetus; 100 mg/kg) of the same compound?
**A.** 4%

**Q.** What about the “animals survived / survival rate” value (Trichomonas foetus; dose of 6.25 mg/kg, mice infected with T. foetus) of the same compound?
**A.** 10%

**Q.** What about the MBC (E. coli 6106; Escherichia coli, 6106, 24 h, read-out: Concentration from which subcultures no longer started) of the same compound?
**A.** > 500 µg/mL

**Q.** And the MIC (E. coli 6106; Escherichia coli, 6106, 24 h)?
**A.** > 500 µg/mL

**Q.** And the MBC (E. coli 6106; Escherichia coli, 6106, 48 h, read-out: Concentration from which subcultures no longer started)?
**A.** > 500 µg/mL

**Q.** What about the MIC (E. coli 6106; Escherichia coli, 6106, 48 h) of the same compound?
**A.** > 500 µg/mL

**Q.** What about the MBC (E. coli 6106; Escherichia coli, 6106, read-out: Concentration from which subcultures no longer started) of the same compound?
**A.** > 500 µg/mL

**Q.** What about the “Concentration from which subcultures no longer started” value (E. coli 6106; [7]) of the same compound?
**A.** > 500 µg/mL

**Q.** And the MBC (Staph. aur. SG 511; [3])?
**A.** > 500 µg/mL

**Q.** And the MIC (Staph. aur. SG 511; 24 h)?
**A.** > 500 µg/mL

**Q.** What about the MBC (Staph. aur. SG 511; [4]) of the same compound?
**A.** > 500 µg/mL

**Q.** What about the MIC (Staph. aur. SG 511; 48 h) of the same compound?
**A.** > 500 µg/mL

**Q.** And the MBC (Staph. aur. SG 511; [5])?
**A.** > 500 µg/mL

**Q.** And the MBC (Staph. aur. SG 511; [6])?
**A.** > 500 µg/mL

**Q.** What about the MBC (Ps. aeruginosa 2; Pseudomonas aeruginosa, 2, 24 h, read-out: Concentration from which subcultures no longer started) of the same compound?
**A.** > 500 µg/mL

**Q.** And the MIC (Ps. aeruginosa 2; Pseudomonas aeruginosa, 2, 24 h)?
**A.** > 500 µg/mL

**Q.** And the MBC (Ps. aeruginosa 2; Pseudomonas aeruginosa, 2, 48 h, read-out: Concentration from which subcultures no longer started)?
**A.** > 500 µg/mL

**Q.** What about the MIC (Ps. aeruginosa 2; Pseudomonas aeruginosa, 2, 48 h) of the same compound?
**A.** > 500 µg/mL

**Q.** What about the MBC (Ps. aeruginosa 2; Pseudomonas aeruginosa, 2, read-out: Concentration from which subcultures no longer started) of the same compound?
**A.** > 500 µg/mL

**Q.** What about the “Concentration from which subcultures no longer started” value (Ps. aeruginosa 2; [7]) of the same compound?
**A.** > 500 µg/mL

**Q.** What about the MBC (streptoc. group B 779; 24 h) of the same compound?
**A.** > 500 µg/mL

**Q.** What about the MIC (streptoc. group B 779; 24 h) of the same compound?
**A.** > 500 µg/mL

**Q.** And the MBC (streptoc. group B 779; 48 h)?
**A.** > 500 µg/mL

**Q.** What about the MIC (streptoc. group B 779; 48 h) of the same compound?
**A.** > 500 µg/mL

**Q.** What about the MBC (streptoc. group B 779) of the same compound?
**A.** > 500 µg/mL

**Q.** What about the “Concentration from which subcultures no longer started” value (streptoc. group B 779; [7]) of the same compound?
**A.** > 500 µg/mL

**Q.** And the “in vitro antibacterial/antiyeast effect (in words)” value [2]?
**A.** ineffective

**Q.** What about the MBC (streptococci group C 805; 24 h) of the same compound?
**A.** > 500 µg/mL

**Q.** And the MIC (streptococci group C 805; 24 h)?
**A.** > 500 µg/mL

**Q.** What about the MBC (streptococci group C 805; 48 h) of the same compound?
**A.** > 500 µg/mL

**Q.** And the MIC (streptococci group C 805; 48 h)?
**A.** > 500 µg/mL

**Q.** What about the MBC (streptococci group C 805) of the same compound?
**A.** > 500 µg/mL

**Q.** And the “Concentration from which subcultures no longer started” value (streptococci group C 805; [7])?
**A.** > 500 µg/mL

**Q.** And the MBC (Klebs. pneum. PCI 602; 24 h)?
**A.** > 500 µg/mL

**Q.** And the MIC (Klebs. pneum. PCI 602; 24 h)?
**A.** > 500 µg/mL

**Q.** And the MBC (Klebs. pneum. PCI 602; 48 h)?
**A.** > 500 µg/mL

**Q.** And the MIC (Klebs. pneum. PCI 602; 48 h)?
**A.** > 500 µg/mL

**Q.** And the MBC (Klebs. pneum. PCI 602)?
**A.** > 500 µg/mL

**Q.** What about the “Concentration from which subcultures no longer started” value (Klebs. pneum. PCI 602; [7]) of the same compound?
**A.** > 500 µg/mL
